What was measured:
[1] = system: Beet Armyworm (Spodoptera exigua, LAPHEG); assay: Bioassay on Beet Armyworm (BAW), 128-well diet tray assay; type: in vivo; conditions: 168 h, 50 μg/cm^2 on artificial diet, second instar larvae, 25° C., five to seven days, average of eight wells, read-out: BAW % Control (or Mortality) rating
Protocol: (§1) Certain molecules disclosed in this document were tested against BAW and CL using procedures described in the following examples. In the reporting of the results, the “BAW & CL Rating Table” was used (See Table Section).
Bioassays on BAW were conducted using a 128-well diet tray assay. One to five second instar BAW larvae were placed in each well (3 mL) of the diet tray that had been previously filled with approximately 1.5 mL of artificial diet to which 50 μg/cm^2 of the test molecule (dissolved in 50 μL of 90:10 acetone-water mixture) had been applied (to each of eight wells) and then allowed to dry. Trays were covered with a clear self-adhesive cover, vented to allow gas exchange, and held at 25° C., 14:10 light-dark for five to seven days. Percent mortality was recorded for the larvae in each well; activity in the eight wells was then averaged. The results are indicated in the table entitled “Table ABC: Biological Results” (See Table Section).

[2] = system: Cabbage Looper (Trichoplusia ni, TRIPNI); assay: Bioassay on Cabbage Looper (CL), 128-well diet tray assay; type: in vivo; conditions: 168 h, 50 μg/cm^2 on artificial diet, second instar larvae, 25° C., five to seven days, average of eight wells, read-out: CL % Control (or Mortality) rating
Protocol: as §1
Bioassays on CL were conducted using a 128-well diet tray assay. one to five second instar CL larvae were placed in each well (3 mL) of the diet tray that had been previously filled with 1 mL of artificial diet to which 50 μg/cm^2 of the test molecule (dissolved in 50 μL of 90:10 acetone-water mixture) had been applied (to each of eight wells) and then allowed to dry. Trays were covered with a clear self-adhesive cover, vented to allow gas exchange, and held at 25° C., 14:10 light-dark for five to seven days. Percent mortality was recorded for the larvae in each well; activity in the eight wells was then averaged. The results are indicated in the table entitled “Table ABC: Biological Results” (See Table Section).

Row | SMILES | mortality at 50 µg/cm2 [1] | mortality at 50 µg/cm2 [2]
1 | O=C(NC1CC(F)(F)C1)c1cc(NC(=O)[C@H]2[C@H](c3cc(C(F)(F)F)cc(C(F)(F)F)c3)C2(Cl)Cl)ccc1Cl (relative stereo) [Molecule F24, trans-5-(3-(3,5-Bis(trifluoromethyl)phenyl)-2,2-dichlorocyclopropanecarboxamido)-2-chloro-N-(3,3-difluorocyclobutyl)benzamide] | 50 to 100% | 50 to 100%
2 | N#CC1(NC(=O)c2cc(NC(=O)[C@H]3[C@H](c4ccc(Cl)c(F)c4)C3(Cl)Cl)ccc2Cl)CC1 (relative stereo) [PF2, trans-2-Chloro-N-(1-cyanocyclopropyl)-5-(2,2-dichloro-3-(4-chloro-3-fluorophenyl)cyclopropane-1-carboxamido)benzamide] | 50 to 100% | 50 to 100%
3 | O=C(NC1CCSC1)c1cc(NC(=O)[C@H]2[C@H](c3cc(Cl)cc(Cl)c3)C2(Cl)Cl)ccc1Cl (relative stereo) [Molecule F7, trans-2-Chloro-5-(2,2-dichloro-3-(3,5-dichlorophenyl)cyclopropanecarboxamido)-N-(tetrahydrothiophen-3-yl)benzamide] | 50 to 100% | 50 to 100%
4 | N#CC1(NC(=O)c2cc(NC(=O)[C@H]3[C@H](c4cc(C(F)(F)F)cc(C(F)(F)F)c4)C3(Cl)Cl)ccc2Cl)CC1 (relative stereo) [Molecule F25, trans-5-(3-(3,5-Bis(trifluoromethyl)phenyl)-2,2-dichlorocyclopropanecarboxamido)-2-chloro-N-(1-cyanocyclopropyl)benzamide] | 50 to 100% | 50 to 100%
5 | O=C(NC1CC(F)(F)C1)c1cc(NC(=O)[C@H]2[C@H](c3ccccc3)C2(Cl)Cl)ccc1Cl (relative stereo) [Molecule F37, trans-2-Chloro-5-(2,2-dichloro-3-phenylcyclopropanecarboxamido)-N-(3,3-difluorocyclobutyl)benzamide] | 50 to 100% | 50 to 100%
6 | O=C(NC1CNC1)c1cc(NC(=O)[C@H]2[C@H](c3cc(Cl)cc(Cl)c3)C2(Cl)Cl)ccc1Cl (relative stereo) [Molecule F59, trans-N-(azetidin-3-yl)-2-chloro-5-(2,2-dichloro-3-(3,5-dichlorophenyl)cyclopropanecarboxamido) benzamide] | 50 to 100% | 50 to 100%
7 | O=C(NC1CS(=O)(=O)C1)c1cc(NC(=O)[C@H]2[C@H](c3cc(Cl)c(Cl)c(Cl)c3)C2(Cl)Cl)ccc1Cl (relative stereo) [Molecule F58, trans-2-chloro-5-(2,2-dichloro-3-(3,4,5-trichlorophenyl)cyclopropanecarboxamido)-N-(1,1-dioxidothietan-3-yl)benzamide] | 50 to 100% | 50 to 100%
8 | CN(C(=O)c1cc(NC(=O)[C@H]2[C@H](c3cc(Cl)cc(Cl)c3)C2(Cl)Cl)ccc1Cl)C1(C#N)CC1 (relative stereo) [PF20, trans-2-Chloro-N-(1-cyanocyclopropyl)-5-(2,2-dichloro-3-(3,5-dichloro-phenyl)cyclopropane-1-carboxamido)-N-methylbenzamide] | 50 to 100% | 50 to 100%
9 | N#CC1(NC(=O)c2cc(NC(=O)[C@H]3[C@H](c4ccccc4)C3(Cl)Cl)ccc2Cl)CC1 (relative stereo) [Molecule F38, trans-2-Chloro-N-(1-cyanocyclopropyl)-5-(2,2-dichloro-3-phenylcyclopropanecarboxamido)benzamide] | 50 to 100% | 50 to 100%
10 | O=C(NC1C[S+]([O-])C1)c1cc(NC(=O)C2C(c3cc(Cl)c(Cl)c(Cl)c3)C2(Cl)Cl)ccc1Cl (single isomer, unassigned) [Molecule F56, trans-2-chloro-5-(2,2-dichloro-3-(3,4,5-trichlorophenyl)cyclopropanecarboxamido)-N-(1-oxidothietan-3-yl)benzamide] | 50 to 100% | 50 to 100%
11 | O=C(NC1CC(F)(F)C1)c1cc(NC(=O)[C@H]2[C@H](c3cc(Cl)cc(C(F)(F)F)c3)C2(Cl)Cl)ccc1Cl (relative stereo) [Molecule F26, trans-2-Chloro-5-(2,2-dichloro-3-(3-chloro-5-(trifluoromethyl)phenyl)cyclopropanecarboxamido)-N-(3,3-difluorocyclobutyl)benzamide] | 50 to 100% | 50 to 100%
12 | Cc1cc(Cl)cc([C@H]2[C@H](C(=O)Nc3ccc(Cl)c(C(=O)NC4(C#N)CC4)c3)C2(Cl)Cl)c1 (relative stereo) [Molecule F47, trans-2-Chloro-N-(1-cyanocyclopropyl)-5-(2,2-dichloro-3-(3-chloro-5-methylphenyl)cyclopropanecarboxamido)benzamide] | 50 to 100% | 50 to 100%
13 | N#CC1(NC(=O)c2cc(NC(=O)[C@H]3[C@H](c4ccc(F)c(Cl)c4)C3(Cl)Cl)ccc2Cl)CC1 (relative stereo) [PF3, trans-2-Chloro-N-(1-cyanocyclopropyl)-5-(2,2-dichloro-3-(3-chloro-4-fluorophenyl)cyclopropane-1-carboxamido)benzamide] | 50 to 100% | 50 to 100%
14 | O=C(NC1CC(F)(F)C1)c1cc(NC(=O)[C@H]2[C@H](c3cc(Cl)c(F)c(Cl)c3)C2(Cl)Cl)ccc1Cl (relative stereo) [Molecule F30, trans-2-Chloro-5-(2,2-dichloro-3-(3,5-dichloro-4-fluorophenyl)cyclopropanecarboxamido)-N-(3,3-difluorocyclobutyl)benzamide] | 50 to 100% | 50 to 100%
15 | O=C(NC1CC(F)(F)C1)c1cc(NC(=O)[C@H]2[C@H](c3cc(Cl)c(Cl)c(Cl)c3)C2(Cl)Cl)ccc1Cl (relative stereo) [Molecule F6, trans-2-Chloro-5-(2,2-dichloro-3-(3,4,5-trichlorophenyl)cyclopropanecarboxamido)-N-(3,3-difluorocyclobutyl)benzamide] | 50 to 100% | 50 to 100%
16 | N#CC1(NC(=O)c2cc(NC(=O)[C@H]3[C@H](c4cc(Cl)c(F)c(Cl)c4)C3(Cl)Cl)ccc2Cl)CC1 (relative stereo) [Molecule F31, trans-2-Chloro-N-(1-cyanocyclopropyl)-5-(2,2-dichloro-3-(3,5-dichloro-4-fluorophenyl)cyclopropanecarboxamido)benzamide] | 50 to 100% | 50 to 100%
17 | N#CC1(NC(=O)c2cc(NC(=O)[C@H]3[C@H](c4cc(Cl)cc(C(F)(F)F)c4)C3(Cl)Cl)ccc2Cl)CC1 (relative stereo) [Molecule F27, trans-2-Chloro-N-(1-cyanocyclopropyl)-5-(2,2-dichloro-3-(3-chloro-5-(trifluoromethyl)phenyl)cyclopropanecarboxamido)benzamide] | 50 to 100% | 50 to 100%
18 | O=C(NN1CCOCC1)c1cc(NC(=O)[C@H]2[C@H](c3cc(Cl)cc(Cl)c3)C2(Cl)Cl)ccc1Cl (relative stereo) [Molecule F52, trans-2-Chloro-5-(2,2-dichloro-3-(3,5-dichlorophenyl)cyclopropanecarboxamido)-N-morpholinobenzamide] | 50 to 100% | 50 to 100%

Reference: patent publication US9795139B2, “Molecules having pesticidal utility, and intermediates, compositions, and processes, related thereto” (priority 2015, dated 2017)
